Results: ChEMBL document CHEMBL1201862, “PubChem BioAssay data set” (2004)
Calls of active or inactive are those of the source.

Legend:
[1] = target: T1, Endoribonuclease toxin MazF (Escherichia coli K-12, UniProt P0AE70); assay: substrate-only fluorescence increase artefacts – biochemical, single-stranded RNase substrate, counter-screen for MazEF activator project, dose response (AID 588502); type: functional
T1 sequence (P0AE70 whole entry): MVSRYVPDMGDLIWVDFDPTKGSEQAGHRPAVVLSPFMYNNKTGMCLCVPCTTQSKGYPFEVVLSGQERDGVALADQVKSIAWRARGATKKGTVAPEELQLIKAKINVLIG

[2] = target: T1, Endoribonuclease toxin MazF; assay: activation of MazEF endoribonuclease cleavage – biochemical, fluorescence, single-stranded RNA substrate, uHTS hits, dose response (AID 588481); type: functional
SN12K1 = assay: cells; type: functional; conditions: Homo sapiens
P388 = assay: cells; type: functional; conditions: Mus musculus
P388/ADR = assay: cells; type: functional; conditions: Mus musculus
[3] = off-target signal loss in HeLa-CEM21 co-culture – HeLa F-luc CTL cells, cherry-picked, counter-screen for HIV-1 Env fusion inhibitor project, dose response (AID 652040); type: functional, cell-based;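 note: potency for signal decrease marking cytotoxic or nonspecific inhibition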
INS1 = assay: INS-1E survival protection against cytokine death – cell-based, luminescence, retest, dose response (AID 449756); type: functional; conditions: Rattus norvegicus;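 note: cell death triggered by IL-1 beta plus TNF-alpha plus IFN-gamma mixture; protective hits raise ATP signal compared with cytokine alone wells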
[4] = blockers of HIV-1 ZM109 envelope-driven cell-cell fusion – HeLa effector, CEM target cells, luciferase, cherry-pick, dose response (AID 652058); type: functional, cell-based;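 note: luciferase signal from HIV-1 Env mediated cell-cell fusion of effector and target cells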
[5] = non-specific 3'UTR reporter inhibition in Clone20-Shn3RL – cell-based, Renilla luciferase, cherry-picked, counter-screen for Shn3 inhibitor project, dose response (AID 624133); type: functional
[6] = loss of viability in HepG2 cells – cell-based, CellTiter-Glo, cherry-picked, cytotoxicity control for Shn3 inhibitor project, dose response (AID 624134); type: functional
[7] = viability loss in CEM21 cells – cell-based, CellTiter-Glo luminescence, cherry-picked, cytotoxicity control for viral fusion inhibitor project, dose response (AID 652042); type: functional;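 note: potency for signal decrease meaning cytotoxicity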
[8] = reduction of Shn3 3'UTR-driven luciferase in osteoblasts – cell-based, Clone20 osteoblasts, firefly luciferase, cherry-picked, dose response (AID 624132); type: functional;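 note: firefly luciferase luminescence from reporter carrying the Shn3 3'UTR in osteoblasts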
[9] = HIV-1 AD8 envelope cell-cell fusion blockers – cherry-pick, dose response (AID 652062); type: functional, cell-based;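 note: luciferase signal from cell-cell fusion driven by HIV-1 clade B AD8 Env; potency is for inhibitors of fusion seen as a drop in luminescence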
[10] = blockers of HIV-1 envelope-mediated cell-cell fusion – cherry-pick, dose response (AID 652057); type: functional, cell-based
[11] = target: T2, Small ubiquitin-related modifier 1 (Homo sapiens, UniProt P63165); assay: SUMO1 protein-protein binding blockers, potency – biochemical, FRET, dose response (AID 624383); type: functional; conditions: read-out: IC50_Mean
[12] = target: T2, Small ubiquitin-related modifier 1; assay: SUMO1 protein interaction blockers, potency – biochemical, fluorescence polarization, uHTS hits, dose response (AID 624382); type: functional; conditions: read-out: IC50_Mean
[13] = target: Heat shock protein HSP 90-alpha (Homo sapiens, UniProt P07900); type: functional, organism-based
Vero = assay: cells; type: functional; conditions: Chlorocebus sabaeus
Nonstructural protein 1 = Nonstructural protein 1 (Influenza A virus, UniProt Q194T2); type: functional, Influenza A virus (A/California/07/2009(H1N1))
[14] = cAMP pathway inhibition in counterscreen cell line – TR-FRET cAMP detection, counter-screen for MC4R biased antagonist project, dose response (AID 602305); type: functional, cell-based;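 note: U2OS cells stimulated with forskolin near its EC80 as the cAMP inducer; potency is for inhibition of forskolin-stimulated cAMP signaling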
[15] = target: T3, Probable nicotinate-nucleotide adenylyltransferase (Staphylococcus aureus (strain N315), UniProt P65502); type: functional, Staphylococcus aureus subsp. aureus N315; conditions: read-out: IC50_Mean;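 for IC50 Mean: confirmatory dose-response retesting of NadD inhibitor hits first found in an ultra-high-throughput screen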
Melanocortin receptor 4 = Melanocortin receptor 4 (Homo sapiens, UniProt P32245); assay: inhibitors of MC4R cAMP signaling – cell-based, TR-FRET, biased antagonists, dose response (AID 602298); type: functional;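 note: antagonist potency against agonist-stimulated cAMP production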
[16] = target: T3, Probable nicotinate-nucleotide adenylyltransferase; type: functional, Staphylococcus aureus subsp. aureus N315
[17] = viability loss in HeLa cells – cytotoxicity control for MgcRacGAP inhibitor project, dose response (AID 624300); type: functional
[18] = target: T4, Rac GTPase-activating protein 1 (Homo sapiens, UniProt Q9H0H5); assay: blockers of MgcRacGAP-driven Rac1 GTP hydrolysis – biochemical, ADP Hunter fluorescence, primary and confirmatory, confirmation (AID 624330); type: functional
T4 sequence (Q9H0H5 whole entry): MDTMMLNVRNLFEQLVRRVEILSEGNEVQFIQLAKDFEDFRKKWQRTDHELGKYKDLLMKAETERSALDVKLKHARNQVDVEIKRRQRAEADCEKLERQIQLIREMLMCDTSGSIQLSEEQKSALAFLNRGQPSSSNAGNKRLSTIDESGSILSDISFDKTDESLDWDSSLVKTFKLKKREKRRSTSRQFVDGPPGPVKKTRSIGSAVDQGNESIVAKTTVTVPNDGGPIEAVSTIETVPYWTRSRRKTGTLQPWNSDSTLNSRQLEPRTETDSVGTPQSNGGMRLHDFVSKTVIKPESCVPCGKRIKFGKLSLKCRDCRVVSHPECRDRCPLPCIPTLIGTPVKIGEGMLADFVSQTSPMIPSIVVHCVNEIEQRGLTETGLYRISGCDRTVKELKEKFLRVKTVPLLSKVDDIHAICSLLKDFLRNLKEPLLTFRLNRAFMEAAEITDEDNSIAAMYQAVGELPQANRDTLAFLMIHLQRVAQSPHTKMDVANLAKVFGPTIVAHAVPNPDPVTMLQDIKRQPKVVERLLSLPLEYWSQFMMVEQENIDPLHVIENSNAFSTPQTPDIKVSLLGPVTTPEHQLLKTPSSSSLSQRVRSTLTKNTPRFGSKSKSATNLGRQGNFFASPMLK

[19] = target: T5, Type-1 angiotensin II receptor (Homo sapiens, UniProt P30556); assay: antagonism of angiotensin II type 1 receptor – cell-based, uHTS hits, selectivity assay for APJ receptor antagonist project, dose response (AID 463214); type: functional;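 note: antagonist potency against angiotensin II stimulated AT1 response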
T5 sequence (P30556 whole entry): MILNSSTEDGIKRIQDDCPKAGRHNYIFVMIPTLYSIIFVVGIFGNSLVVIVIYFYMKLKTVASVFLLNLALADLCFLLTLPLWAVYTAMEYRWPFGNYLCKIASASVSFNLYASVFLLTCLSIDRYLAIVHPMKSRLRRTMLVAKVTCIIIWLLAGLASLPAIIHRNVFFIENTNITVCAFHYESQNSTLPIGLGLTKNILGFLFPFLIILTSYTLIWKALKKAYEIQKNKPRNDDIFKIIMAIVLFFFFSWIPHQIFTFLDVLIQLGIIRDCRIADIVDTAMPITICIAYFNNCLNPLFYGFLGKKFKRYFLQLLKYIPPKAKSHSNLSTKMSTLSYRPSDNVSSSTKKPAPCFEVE

Beta-galactosidase = Beta-galactosidase (Escherichia coli, UniProt Q8VNN2); assay: PubChem AID 485352; type: functional
[20] = Fluorescence-based cell-based high throughput dose response assay for inhibitors of the interaction of nucleotide-binding oligomerization domain containing 2 (NOD2) and the receptor-interacting serine-threonine kinase 2 (RIPK2).; type: functional; conditions: Homo sapiens

Beta-galactosidase, sequence (Q8VNN2 whole entry, the tested form may be a part): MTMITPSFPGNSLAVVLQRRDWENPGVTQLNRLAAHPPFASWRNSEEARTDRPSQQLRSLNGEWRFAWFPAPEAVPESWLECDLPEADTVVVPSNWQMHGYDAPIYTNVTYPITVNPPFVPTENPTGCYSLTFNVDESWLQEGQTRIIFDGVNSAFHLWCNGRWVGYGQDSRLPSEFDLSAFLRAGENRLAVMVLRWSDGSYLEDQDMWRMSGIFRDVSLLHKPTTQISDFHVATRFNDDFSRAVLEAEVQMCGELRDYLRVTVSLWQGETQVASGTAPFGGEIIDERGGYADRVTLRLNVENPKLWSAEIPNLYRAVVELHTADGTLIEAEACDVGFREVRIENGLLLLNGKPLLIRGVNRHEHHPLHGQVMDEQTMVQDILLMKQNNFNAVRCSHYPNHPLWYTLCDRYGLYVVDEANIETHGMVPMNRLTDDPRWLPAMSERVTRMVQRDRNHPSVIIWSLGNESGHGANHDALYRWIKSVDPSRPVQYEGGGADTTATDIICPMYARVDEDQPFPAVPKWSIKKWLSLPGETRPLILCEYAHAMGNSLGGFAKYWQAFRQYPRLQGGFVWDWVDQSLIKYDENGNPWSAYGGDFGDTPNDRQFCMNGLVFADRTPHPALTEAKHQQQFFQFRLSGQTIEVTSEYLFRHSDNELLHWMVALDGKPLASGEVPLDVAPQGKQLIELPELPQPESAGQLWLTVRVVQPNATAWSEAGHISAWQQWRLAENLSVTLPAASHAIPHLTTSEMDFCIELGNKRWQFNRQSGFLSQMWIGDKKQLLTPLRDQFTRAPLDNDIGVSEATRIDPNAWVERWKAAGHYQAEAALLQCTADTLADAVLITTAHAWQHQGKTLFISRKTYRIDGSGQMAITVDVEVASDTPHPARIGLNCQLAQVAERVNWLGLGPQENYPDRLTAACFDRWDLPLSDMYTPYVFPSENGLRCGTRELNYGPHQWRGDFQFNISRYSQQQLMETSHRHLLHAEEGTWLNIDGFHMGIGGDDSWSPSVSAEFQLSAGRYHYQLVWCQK
T2 sequence (P63165 whole entry): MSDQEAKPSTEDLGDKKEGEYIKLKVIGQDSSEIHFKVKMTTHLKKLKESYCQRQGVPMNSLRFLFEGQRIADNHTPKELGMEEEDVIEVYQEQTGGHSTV
T3 sequence (P65502 whole entry): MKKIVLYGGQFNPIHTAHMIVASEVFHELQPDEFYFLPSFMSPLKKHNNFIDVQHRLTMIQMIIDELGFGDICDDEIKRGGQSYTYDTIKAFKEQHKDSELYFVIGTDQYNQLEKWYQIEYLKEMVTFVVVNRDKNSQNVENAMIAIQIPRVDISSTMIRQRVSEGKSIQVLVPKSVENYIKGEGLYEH
Melanocortin receptor 4, sequence (P32245 whole entry): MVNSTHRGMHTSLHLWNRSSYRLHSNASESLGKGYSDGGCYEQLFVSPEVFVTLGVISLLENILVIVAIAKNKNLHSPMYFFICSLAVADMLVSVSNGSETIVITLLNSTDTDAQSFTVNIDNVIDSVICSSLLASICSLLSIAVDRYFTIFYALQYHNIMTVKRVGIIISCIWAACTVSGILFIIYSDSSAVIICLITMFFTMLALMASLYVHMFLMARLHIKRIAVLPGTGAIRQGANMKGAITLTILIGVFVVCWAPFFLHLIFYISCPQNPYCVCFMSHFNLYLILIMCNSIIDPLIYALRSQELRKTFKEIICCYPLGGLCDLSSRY
Nonstructural protein 1, sequence (Q194T2 whole entry): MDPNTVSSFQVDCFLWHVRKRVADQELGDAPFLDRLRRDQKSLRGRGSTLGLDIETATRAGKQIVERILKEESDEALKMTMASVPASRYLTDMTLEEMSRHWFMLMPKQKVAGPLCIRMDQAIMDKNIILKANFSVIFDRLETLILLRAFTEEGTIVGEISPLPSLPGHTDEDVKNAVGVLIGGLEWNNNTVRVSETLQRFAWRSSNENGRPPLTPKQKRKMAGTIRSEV

For `Cc1ccc(-c2cc(C#N)c(=O)n(Cc3c(Cl)cccc3Cl)c2)cc1`, the EC50 [1] was 41.9 µM (inactive) and the EC50 [2] was > 99 µM (inactive).

With `O=NN1C(c2ccccc2)CNC(=O)CC1c1ccccc1` (stereo not drawn) the GI50 (SN12K1) was 39.2 µM (inactive), the GI50 (P388) was 21.8 µM (inactive) and the GI50 (P388/ADR) was 22.8 µM (inactive).

For `CC(C)(C)n1ncc2c(=O)n(Cc3cccc(Cn4cnc5c(cnn5C(C)(C)C)c4=O)c3F)cnc21`, the AC50 [3] was 35.4 µM (active), the AC50 (INS1) was 3.27 µM (active) and the AC50 [4] was 1.74 µM (active). For the same compound, the AC50 [5] was 0.84 µM (active), the AC50 [6] was 19.4 µM (active) and the AC50 [7] was 35.2 µM (active). For the same compound, the AC50 [8] was 1.09 µM (active), the AC50 [9] was 6.31 µM (active) and the AC50 [10] was 17.9 µM (active).

With `COC(=O)c1ccc(OCC(=O)Nc2nn(-c3ccccc3)nc2C(N)=O)cc1` the IC50 [11] was 3.99 µM (active) and the IC50 [12] was > 66.6 µM (inactive).

In the case of `CCOc1ccc2c(c1)S/C(=C\c1cccs1)C(=O)N2`, the EC50 [1] is reported as > 99 µM (inactive) and the EC50 [2] is reported as > 99 µM (inactive).

In the case of `CCOc1ccc2c(ccc(/C=C/c3cc(C)c4cccnc4c3O)[n+]2C)c1`, the AC50 [13] is reported as 0.276 µM (active), the CC50 (Vero) is reported as 13.1 µM (active) and the IC50 (Nonstructural protein 1) is reported as 0.676 µM (active). For the same compound, the IC50 [14] was > 64.5 µM (inactive), the IC50 [15] was 11.7 µM (active) and the IC50 (Melanocortin receptor 4) was > 2.39 µM (active). For the same compound, the IC50 [16] was 8.71 µM (active), the CC50 [17] was 95.9 µM (active) and the IC50 [18] was 34.5 µM (active).

With `CO[C@H](CN(C)S(=O)(=O)c1ccc(Cl)cc1)[C@@H](C)CN([C@@H](C)CO)S(=O)(=O)c1cccc(Cl)c1` the AC50 [4] was 5.98 µM (active), the AC50 [7] was 39.7 µM (active) and the AC50 [9] was 25.1 µM (active). For the same compound, the AC50 [10] was 2.93 µM (active).

In the case of `Cc1nn(CCC(=O)NNC(S)=NCC(C)C)c(C)c1Br`, the IC50 [19] is reported as 15.9 µM (active) and the EC50 (Beta-galactosidase) is reported as 32.1 µM (active).

For `COc1cc(/C=C/[N+](=O)[O-])ccc1OC(=O)c1cccnc1`, the AC50 [13] was 4.36 µM (active), the CC50 (Vero) was 17.5 µM (active) and the IC50 [19] was 5.87 µM (active). For the same compound, the IC50 [20] was 1.82 µM (active) and the EC50 (Beta-galactosidase) was > 40 µM (inactive).
